In ChEMBL document CHEMBL3879911, “Heteroaryl compounds useful as inhibitors of E1 activating enzymes” (2008):

Biological target: T1, NEDD8 activating enzyme (Homo sapiens, UniProt Q8TBC4)
T1 sequence (Q8TBC4 whole entry): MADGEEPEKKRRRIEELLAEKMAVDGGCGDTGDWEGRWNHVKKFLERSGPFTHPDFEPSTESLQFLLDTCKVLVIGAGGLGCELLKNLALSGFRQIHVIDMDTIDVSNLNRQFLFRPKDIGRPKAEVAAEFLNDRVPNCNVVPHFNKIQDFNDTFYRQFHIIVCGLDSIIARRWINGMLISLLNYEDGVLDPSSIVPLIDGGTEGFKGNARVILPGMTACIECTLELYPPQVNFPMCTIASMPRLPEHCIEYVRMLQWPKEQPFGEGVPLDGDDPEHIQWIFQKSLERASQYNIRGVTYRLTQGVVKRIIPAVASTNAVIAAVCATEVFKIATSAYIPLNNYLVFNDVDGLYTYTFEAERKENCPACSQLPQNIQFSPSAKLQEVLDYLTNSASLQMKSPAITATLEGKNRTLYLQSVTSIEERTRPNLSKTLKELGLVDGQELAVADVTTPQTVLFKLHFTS
T1 sequence (Q13564 whole entry): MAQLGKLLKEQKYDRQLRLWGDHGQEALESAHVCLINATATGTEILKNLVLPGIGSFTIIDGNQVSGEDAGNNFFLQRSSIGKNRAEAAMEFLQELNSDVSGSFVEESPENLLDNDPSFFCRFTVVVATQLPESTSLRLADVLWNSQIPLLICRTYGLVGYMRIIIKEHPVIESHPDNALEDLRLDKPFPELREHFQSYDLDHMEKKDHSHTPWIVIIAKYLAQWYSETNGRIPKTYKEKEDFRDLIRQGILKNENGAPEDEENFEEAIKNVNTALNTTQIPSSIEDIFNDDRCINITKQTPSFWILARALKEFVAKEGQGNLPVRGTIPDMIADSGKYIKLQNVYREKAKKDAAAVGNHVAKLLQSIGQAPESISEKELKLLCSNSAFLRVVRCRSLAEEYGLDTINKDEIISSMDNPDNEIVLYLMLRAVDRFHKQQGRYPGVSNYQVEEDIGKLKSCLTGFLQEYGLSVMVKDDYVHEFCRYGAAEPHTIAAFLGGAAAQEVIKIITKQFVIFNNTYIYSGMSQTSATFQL
Assay: Inhibition of recombinant human NAEalpha/N-terminal His-tagged NAEbeta expressed in baculovirus infected insect Sf9 cells using N-terminal FLAG tagged Nedd8 as substrate incubated for 105 mins in presence of N-terminal GST-tagged Ubc12 by FRET assay

| Structure (SMILES) | IC50 [µM] |
| --- | --- |
| NS(=O)(=O)OC[C@@H]1C[C@@H](N2CCc3c(N[C@H]4CCc5ccccc54)ncnc32)C[C@@H]1O | ≤ 0.5 |
| NS(=O)(=O)OC[C@@H]1C[C@@H](Nc2ncnc(N[C@H]3CCc4ccccc43)n2)C[C@@H]1O | ≤ 0.5 |
| NS(=O)(=O)OC[C@H]1C[C@@H](Nc2ccnc(C(=O)N3CCc4ccccc43)c2)[C@H](O)[C@@H]1O | > 10 |
| NS(=O)(=O)OC[C@@H]1C[C@@H](Oc2cc(NC3CCCC3)ncn2)C[C@@H]1O | 0.5 to 10 |
| NS(=O)(=O)OC[C@H]1C[C@@H](Nc2ccnc(C(=O)N[C@H]3CCc4ccccc43)c2)[C@H](O)[C@@H]1O | > 10 |
| NS(=O)(=O)OC[C@H]1C[C@@H](Nc2cc(Nc3cccc4c3CCCC4)ncn2)[C@H](O)[C@@H]1O | ≤ 0.5 |
| NS(=O)(=O)OC[C@@H]1C[C@@H](Nc2ncnc3[nH]c(-c4ccccc4C(F)(F)F)nc23)C[C@@H]1O | ≤ 0.5 |
| NS(=O)(=O)OC[C@H]1C[C@@H](Nc2nc(N[C@H]3CCc4ccccc43)ncc2F)[C@H](O)[C@@H]1O | 0.5 to 10 |
| CO[C@@H]1CC(C)(C)c2ccccc2[C@@H]1Nc1cc(O[C@@H]2C[C@@H](COS(N)(=O)=O)[C@@H](O)C2)ncn1 | ≤ 0.5 |
| Cn1c(-c2ccccc2)nc2c(N[C@@H]3C[C@@H](COS(N)(=O)=O)[C@@H](O)C3)ncnc21 | ≤ 0.5 |
| CN(c1ncnc2c1nc(-c1ccccc1)n2C)[C@@H]1C[C@@H](COS(N)(=O)=O)[C@@H](O)C1 | 0.5 to 10 |
| CN(C)c1ccccc1-c1nc2c(N[C@@H]3C[C@@H](COS(N)(=O)=O)[C@@H](O)C3)ncnc2[nH]1 | ≤ 0.5 |
| CO[C@H]1CC(C)(C)c2ccccc2[C@H]1Nc1cc(O[C@@H]2C[C@@H](COS(N)(=O)=O)[C@@H](O)C2)ncn1 | ≤ 0.5 |
| CC1(C)C[C@H](Nc2ncnc(N[C@@H]3C[C@@H](COS(N)(=O)=O)[C@@H](O)C3)n2)c2ccccc21 | ≤ 0.5 |
| OC[C@@H]1C[C@@H](Nc2ncnc3[nH]c(-c4cccc5c4OCCO5)nc23)C[C@@H]1O | 0.5 to 10 |
| NS(=O)(=O)OC[C@@H]1C[C@@H](Nc2ncnc3[nH]c(C4CCCCC4)nc23)C[C@@H]1O | ≤ 0.5 |
| CO[C@@H]1CCc2ccccc2[C@@H]1Nc1cc(O[C@@H]2C[C@@H](COS(N)(=O)=O)[C@@H](O)C2)ncn1 | ≤ 0.5 |
| NS(=O)(=O)OC[C@@H]1C[C@@H](Nc2ncnc(N[C@@H]3c4ccccc4CC3(F)F)n2)C[C@@H]1O | ≤ 0.5 |
| CO[C@H]1CCc2ccccc2[C@H]1Nc1cc(O[C@@H]2C[C@@H](COS(N)(=O)=O)[C@@H](O)C2)ncn1 | ≤ 0.5 |
| CC1(C)C[C@H](Nc2cc(O[C@@H]3C[C@@H](COS(N)(=O)=O)[C@@H](O)C3)ncn2)c2ccccc21 | ≤ 0.5 |
| COc1ccc2c(c1)[C@H](Nc1cc(O[C@@H]3C[C@@H](COS(N)(=O)=O)[C@@H](O)C3)ncn1)[C@H](OC)CC2 | 0.5 to 10 |
| CO[C@H]1Cc2ccccc2[C@H]1Nc1ncnc(N[C@@H]2C[C@@H](COS(N)(=O)=O)[C@@H](O)C2)n1 | ≤ 0.5 |
| NS(=O)(=O)OC[C@@H]1C[C@@H](Nc2ncnc3[nH]c(-c4ccc(Cl)cc4)nc23)C[C@@H]1O | ≤ 0.5 |
| CO[C@H]1Cc2ccccc2[C@H]1Nc1cc(O[C@@H]2C[C@@H](COS(N)(=O)=O)[C@@H](O)C2)ncn1 | ≤ 0.5 |
| COc1ccc2c(c1)[C@@H](Nc1cc(O[C@@H]3C[C@@H](COS(N)(=O)=O)[C@@H](O)C3)ncn1)[C@@H](OC)CC2 | 0.5 to 10 |
| CC(C)(C)c1nc2c(N[C@@H]3C[C@@H](COS(N)(=O)=O)[C@@H](O)C3)ncnc2[nH]1 | ≤ 0.5 |
| NS(=O)(=O)OCC1C[C@@H](Nc2ncnc3[nH]c(C4CCCc5ccccc54)nc23)C[C@@H]1O (single isomer, unassigned) | ≤ 0.5 |

Now from value to compound:

| IC50 [µM] | Structure (SMILES) |
| --- | --- |
| 0.5 to 10 | NS(=O)(=O)OC[C@H]1CC[C@H](Oc2ncnc3[nH]c(-c4cccc5ccccc45)nc23)C1 |
| ≤ 0.5 | NS(=O)(=O)OC[C@@H]1C[C@@H](Nc2ncnc3[nH]c(-c4cccc5c4CCCC5)nc23)C[C@@H]1O |
| 0.5 to 10 | NS(=O)(=O)OC[C@@H]1C[C@@H](Oc2cc(-c3ccccc3)ncn2)C[C@@H]1O |
| 0.5 to 10 | NS(=O)(=O)OC[C@@H]1C[C@@H](Oc2cc(OCc3cccc4ccccc34)ncn2)C[C@@H]1O |
| 0.5 to 10 | NS(=O)(=O)OC[C@@H]1C[C@@H](Oc2cc(OCc3ccc4ccccc4c3)ncn2)C[C@@H]1O |
| ≤ 0.5 | Cc1cccc(Sc2nc3ncnc(O[C@@H]4C[C@@H](COS(N)(=O)=O)[C@@H](O)C4)c3[nH]2)c1 |
| 0.5 to 10 | NS(=O)(=O)OC[C@@H]1C[C@@H](Oc2cc(Cc3ccccc3)ncn2)C[C@@H]1O |
| ≤ 0.5 | NS(=O)(=O)OC[C@@H]1C[C@@H](Oc2ncnc3nc(-c4ccc(N5CCCC5)c5ccccc45)[nH]c23)C[C@@H]1O |
| ≤ 0.5 | NS(=O)(=O)OC[C@@H]1C[C@@H](Oc2ncnc3nc(-c4cncc5ccccc45)[nH]c23)C[C@@H]1O |
| ≤ 0.5 | NS(=O)(=O)OC[C@@H]1C[C@@H](Oc2ncnc3nc(-c4c[nH]c5ccccc45)[nH]c23)C[C@@H]1O |
| ≤ 0.5 | NS(=O)(=O)OC[C@@H]1C[C@@H](Oc2ncnc3nc(-c4cnn(Cc5ccccc5)c4)[nH]c23)C[C@@H]1O |
| ≤ 0.5 | NS(=O)(=O)OC[C@@H]1C[C@@H](Nc2ncnc3nc(-c4cccc5c4OCC5)[nH]c23)C[C@@H]1O |
| 0.5 to 10 | NS(=O)(=O)OC[C@@H]1C[C@@H](Oc2cc(N3Cc4ccccc4C3)ncn2)C[C@@H]1O |
